Reference: ChEMBL document CHEMBL3045835, “Comparative study of conventional and microwave-assisted synthesis of some Schiff bases and their potential as antimicrobial agents” (2012)
Converted amounts (≈) assume the structure as drawn.

Legend:
Assay type in all cases: functional
[1] = system: Bacillus subtilis; test: Antibacterial activity against Bacillus subtilis MTCC 441 at 100 ug/ml after 18 hr by cup plate method; details: MTCC 441, 18 h, read-out: DIZ
[2] = system: Escherichia coli; test: Antibacterial activity against Escherichia coli MTCC 1573 at 100 ug/ml after 18 hr by cup-plate method; details: MTCC 1573, 18 h, read-out: DIZ
[3] = system: Bacillus subtilis; test: Antibacterial activity against Bacillus subtilis MTCC 441 after 24 hr by broth dilution method; details: MTCC 441, 24 h
[4] = system: Pseudomonas fluorescens; test: Antibacterial activity against Pseudomonas fluorescens MTCC 2421 at 1500 ug/ml after 18 hr by cup-plate method; details: MTCC 2421, 18 h, read-out: DIZ
[5] = system: Micrococcus luteus; test: Antibacterial activity against Micrococcus luteus MTCC 1538 at 1500 ug/ml after 18 hr by cup-plate method; details: MTCC 1538, 18 h, read-out: DIZ
[6] = system: Pseudomonas aeruginosa; test: Antibacterial activity against Pseudomonas aeruginosa MTCC 424 at 1500 ug/ml after 18 hr by cup-plate method; details: MTCC 424, 18 h, read-out: DIZ
[7] = system: Escherichia coli; test: Antibacterial activity against Escherichia coli MTCC 1573 at 1000 ug/ml after 18 hr by cup-plate method; details: MTCC 1573, 18 h, read-out: DIZ
[8] = system: Staphylococcus aureus; test: Antibacterial activity against Staphylococcus aureus MTCC 1430 at 1000 ug/ml after 18 hr by cup-plate method; details: MTCC 1430, 18 h, read-out: DIZ
[9] = system: Penicillium chrysogenum; test: Antifungal activity against Penicillium chrysogenum MTCC 161 at 1500 ug/ml after 18 hr by cup-plate method; details: MTCC 161, 18 h, read-out: DIZ
[10] = system: Pseudomonas aeruginosa; test: Antibacterial activity against Pseudomonas aeruginosa MTCC 424 at 100 ug/ml after 18 hr by cup-plate method; details: MTCC 424, 18 h, read-out: DIZ
[11] = system: Micrococcus luteus; test: Antibacterial activity against Micrococcus luteus MTCC 1538 at 500 ug/ml after 18 hr by cup-plate method; details: MTCC 1538, 18 h, read-out: DIZ
[12] = system: Bacillus pumilus; test: Antibacterial activity against Bacillus pumilus MTCC 1456 after 24 hr by broth dilution method; details: MTCC 1456, 24 h
[13] = system: Bacillus subtilis; test: Antibacterial activity against Bacillus subtilis MTCC 441 at 500 ug/ml after 18 hr by cup plate method; details: MTCC 441, 18 h, read-out: DIZ
[14] = system: Pseudomonas aeruginosa; test: Antibacterial activity against Pseudomonas aeruginosa MTCC 424 at 200 ug/ml after 18 hr by cup-plate method; details: MTCC 424, 18 h, read-out: DIZ
[15] = system: Penicillium chrysogenum; test: Antifungal activity against Penicillium chrysogenum MTCC 161 at 100 ug/ml after 18 hr by cup-plate method; details: MTCC 161, 18 h, read-out: DIZ
[16] = system: Staphylococcus aureus; test: Antibacterial activity against Staphylococcus aureus MTCC 1430 at 100 ug/ml after 18 hr by cup-plate method; details: MTCC 1430, 18 h, read-out: DIZ
[17] = system: Escherichia coli; test: Antibacterial activity against Escherichia coli MTCC 1573 at 1500 ug/ml after 18 hr by cup-plate method; details: MTCC 1573, 18 h, read-out: DIZ
[18] = system: Aspergillus niger; test: Antifungal activity against Aspergillus niger MTCC 2546 at 1000 ug/ml after 18 hr by cup-plate method; details: MTCC 2546, 18 h, read-out: DIZ
[19] = system: Pseudomonas fluorescens; test: Antibacterial activity against Pseudomonas fluorescens MTCC 2421 after 24 hr by broth dilution method; details: MTCC 2421, 24 h
[20] = system: Escherichia coli; test: Antibacterial activity against Escherichia coli MTCC 1573 at 200 ug/ml after 18 hr by cup-plate method; details: MTCC 1573, 18 h, read-out: DIZ
[21] = system: Escherichia coli; test: Antibacterial activity against Escherichia coli MTCC 1573 after 24 hr by broth dilution method; details: MTCC 1573, 24 h
[22] = system: Bacillus pumilus; test: Antibacterial activity against Bacillus pumilus MTCC 1456 at 100 ug/ml after 18 hr by cup-plate method; details: MTCC 1456, 18 h, read-out: DIZ
[23] = system: Micrococcus luteus; test: Antibacterial activity against Micrococcus luteus MTCC 1538 after 24 hr by broth dilution method; details: MTCC 1538, 24 h
[24] = system: Staphylococcus aureus; test: Antibacterial activity against Staphylococcus aureus MTCC 1430 at 500 ug/ml after 18 hr by cup-plate method; details: MTCC 1430, 18 h, read-out: DIZ
[25] = system: Bacillus subtilis; test: Antibacterial activity against Bacillus subtilis MTCC 441 at 200 ug/ml after 18 hr by cup plate method; details: MTCC 441, 18 h, read-out: DIZ
[26] = system: Staphylococcus aureus; test: Antibacterial activity against Staphylococcus aureus MTCC 1430 at 200 ug/ml after 18 hr by cup-plate method; details: MTCC 1430, 18 h, read-out: DIZ
[27] = system: Pseudomonas fluorescens; test: Antibacterial activity against Pseudomonas fluorescens MTCC 2421 at 100 ug/ml after 18 hr by cup-plate method; details: MTCC 2421, 18 h, read-out: DIZ
[28] = system: Staphylococcus aureus; test: Antibacterial activity against Staphylococcus aureus MTCC 1430 at 1500 ug/ml after 18 hr by cup-plate method; details: MTCC 1430, 18 h, read-out: DIZ
[29] = system: Aspergillus niger; test: Antifungal activity against Aspergillus niger MTCC 2546 at 1500 ug/ml after 18 hr by cup-plate method; details: MTCC 2546, 18 h, read-out: DIZ
[30] = system: Aspergillus niger; test: Antifungal activity against Aspergillus niger MTCC 2546 after 24 hr by broth dilution method; details: MTCC 2546, 24 h
[31] = system: Penicillium chrysogenum; test: Antifungal activity against Penicillium chrysogenum MTCC 161 at 200 ug/ml after 18 hr by cup-plate method; details: MTCC 161, 18 h, read-out: DIZ
[32] = system: Pseudomonas aeruginosa; test: Antibacterial activity against Pseudomonas aeruginosa MTCC 424 at 1000 ug/ml after 18 hr by cup-plate method; details: MTCC 424, 18 h, read-out: DIZ
[33] = system: Aspergillus niger; test: Antifungal activity against Aspergillus niger MTCC 2546 at 100 ug/ml after 18 hr by cup-plate method; details: MTCC 2546, 18 h, read-out: DIZ
[34] = system: Penicillium chrysogenum; test: Antifungal activity against Penicillium chrysogenum MTCC 161 at 1000 ug/ml after 18 hr by cup-plate method; details: MTCC 161, 18 h, read-out: DIZ
[35] = system: Micrococcus luteus; test: Antibacterial activity against Micrococcus luteus MTCC 1538 at 100 ug/ml after 18 hr by cup-plate method; details: MTCC 1538, 18 h, read-out: DIZ
[36] = system: Bacillus subtilis; test: Antibacterial activity against Bacillus subtilis MTCC 441 at 1000 ug/ml after 18 hr by cup plate method; details: MTCC 441, 18 h, read-out: DIZ
[37] = system: Pseudomonas fluorescens; test: Antibacterial activity against Pseudomonas fluorescens MTCC 2421 at 1000 ug/ml after 18 hr by cup-plate method; details: MTCC 2421, 18 h, read-out: DIZ
[38] = system: Aspergillus niger; test: Antifungal activity against Aspergillus niger MTCC 2546 at 200 ug/ml after 18 hr by cup-plate method; details: MTCC 2546, 18 h, read-out: DIZ
[39] = system: Bacillus pumilus; test: Antibacterial activity against Bacillus pumilus MTCC 1456 at 500 ug/ml after 18 hr by cup-plate method; details: MTCC 1456, 18 h, read-out: DIZ
[40] = system: Escherichia coli; test: Antibacterial activity against Escherichia coli MTCC 1573 at 500 ug/ml after 18 hr by cup-plate method; details: MTCC 1573, 18 h, read-out: DIZ
[41] = system: Penicillium chrysogenum; test: Antifungal activity against Penicillium chrysogenum MTCC 161 after 24 hr by broth dilution method; details: MTCC 161, 24 h
[42] = system: Pseudomonas fluorescens; test: Antibacterial activity against Pseudomonas fluorescens MTCC 2421 at 200 ug/ml after 18 hr by cup-plate method; details: MTCC 2421, 18 h, read-out: DIZ
[43] = system: Bacillus pumilus; test: Antibacterial activity against Bacillus pumilus MTCC 1456 at 1000 ug/ml after 18 hr by cup-plate method; details: MTCC 1456, 18 h, read-out: DIZ
[44] = system: Penicillium chrysogenum; test: Antifungal activity against Penicillium chrysogenum MTCC 161 at 500 ug/ml after 18 hr by cup-plate method; details: MTCC 161, 18 h, read-out: DIZ
[45] = system: Bacillus pumilus; test: Antibacterial activity against Bacillus pumilus MTCC 1456 at 200 ug/ml after 18 hr by cup-plate method; details: MTCC 1456, 18 h, read-out: DIZ
[46] = system: Bacillus pumilus; test: Antibacterial activity against Bacillus pumilus MTCC 1456 at 1500 ug/ml after 18 hr by cup-plate method; details: MTCC 1456, 18 h, read-out: DIZ
[47] = system: Bacillus subtilis; test: Antibacterial activity against Bacillus subtilis MTCC 441 at 1500 ug/ml after 18 hr by cup plate method; details: MTCC 441, 18 h, read-out: DIZ
[48] = system: Pseudomonas aeruginosa; test: Antibacterial activity against Pseudomonas aeruginosa MTCC 424 at 500 ug/ml after 18 hr by cup-plate method; details: MTCC 424, 18 h, read-out: DIZ
[49] = system: Micrococcus luteus; test: Antibacterial activity against Micrococcus luteus MTCC 1538 at 200 ug/ml after 18 hr by cup-plate method; details: MTCC 1538, 18 h, read-out: DIZ
[50] = system: Pseudomonas fluorescens; test: Antibacterial activity against Pseudomonas fluorescens MTCC 2421 at 500 ug/ml after 18 hr by cup-plate method; details: MTCC 2421, 18 h, read-out: DIZ
[51] = system: Pseudomonas aeruginosa; test: Antibacterial activity against Pseudomonas aeruginosa MTCC 424 after 24 hr by broth dilution method; details: MTCC 424, 24 h
[52] = system: Aspergillus niger; test: Antifungal activity against Aspergillus niger MTCC 2546 at 500 ug/ml after 18 hr by cup-plate method; details: MTCC 2546, 18 h, read-out: DIZ
[53] = system: Micrococcus luteus; test: Antibacterial activity against Micrococcus luteus MTCC 1538 at 1000 ug/ml after 18 hr by cup-plate method; details: MTCC 1538, 18 h, read-out: DIZ
[54] = system: Staphylococcus aureus; test: Antibacterial activity against Staphylococcus aureus MTCC 1430 after 24 hr by broth dilution method; details: MTCC 1430, 24 h

MIC [3]: 300 µg/mL (≈ 1350 µM) | MIC [12]: 300 µg/mL (≈ 1350 µM) | MIC [19]: 300 µg/mL (≈ 1350 µM) | MIC [21]: 50 µg/mL (≈ 225 µM) | MIC [23]: 300 µg/mL (≈ 1350 µM) | MIC [30]: 50 µg/mL (≈ 225 µM) | MIC [41]: 50 µg/mL (≈ 225 µM) | MIC [51]: 200 µg/mL (≈ 900 µM) | MIC [54]: 400 µg/mL (≈ 1800 µM)
SMILES: C(=N/c1nc[nH]n1)/c1cccc2ccccc12
zone of inhibition at 100 µg/mL [1]: 15 mm | zone of inhibition at 100 µg/mL [2]: 17 mm | zone of inhibition at 1500 µg/mL [4]: 23 mm | zone of inhibition at 1500 µg/mL [5]: 23 mm | zone of inhibition at 1500 µg/mL [6]: 24 mm | zone of inhibition at 1000 µg/mL [7]: 23 mm | zone of inhibition at 1000 µg/mL [8]: 16 mm | zone of inhibition at 1500 µg/mL [9]: 24 mm | zone of inhibition at 100 µg/mL [10]: 17 mm | zone of inhibition at 500 µg/mL [11]: 18 mm | zone of inhibition at 500 µg/mL [13]: 18 mm | zone of inhibition at 200 µg/mL [14]: 18 mm | zone of inhibition at 100 µg/mL [15]: 17 mm | zone of inhibition at 100 µg/mL [16]: 12 mm | zone of inhibition at 1500 µg/mL [17]: 25 mm | zone of inhibition at 1000 µg/mL [18]: 21 mm | zone of inhibition at 200 µg/mL [20]: 18 mm | zone of inhibition at 100 µg/mL [22]: 13 mm | zone of inhibition at 500 µg/mL [24]: 14 mm | zone of inhibition at 200 µg/mL [25]: 16 mm | zone of inhibition at 200 µg/mL [26]: 13 mm | zone of inhibition at 100 µg/mL [27]: 14 mm | zone of inhibition at 1500 µg/mL [28]: 18 mm | zone of inhibition at 1500 µg/mL [29]: 22 mm | zone of inhibition at 200 µg/mL [31]: 18 mm | zone of inhibition at 1000 µg/mL [32]: 22 mm | zone of inhibition at 100 µg/mL [33]: 16 mm | zone of inhibition at 1000 µg/mL [34]: 21 mm | zone of inhibition at 100 µg/mL [35]: 12 mm | zone of inhibition at 1000 µg/mL [36]: 19 mm | zone of inhibition at 1000 µg/mL [37]: 21 mm | zone of inhibition at 200 µg/mL [38]: 17 mm | zone of inhibition at 500 µg/mL [39]: 17 mm | zone of inhibition at 500 µg/mL [40]: 19 mm | zone of inhibition at 200 µg/mL [42]: 16 mm | zone of inhibition at 1000 µg/mL [43]: 18 mm | zone of inhibition at 500 µg/mL [44]: 20 mm | zone of inhibition at 200 µg/mL [45]: 16 mm | zone of inhibition at 1500 µg/mL [46]: 20 mm | zone of inhibition at 1500 µg/mL [47]: 21 mm | zone of inhibition at 500 µg/mL [48]: 20 mm | zone of inhibition at 200 µg/mL [49]: 15 mm | zone of inhibition at 500 µg/mL [50]: 19 mm | zone of inhibition at 500 µg/mL [52]: 18 mm | zone of inhibition at 1000 µg/mL [53]: 20 mm
